Where two headings read alike, the source gives them in different places.
Assays:
[1] = Ross-Miles foam test based upon ASTM D 1173-53; type: physicochemical; settings: 0.1 wt % solution
Method: In this test, a 0.1 wt % solution of the surfactant is added from an elevated foam pipette to a foam receiver containing the same solution. The foam height is measured at the completion of the addition (“Initial Foam Height”) and the time required for the foam to dissipate is recorded (“Time to 0 Foam”). This test provides a comparison between the foaming characteristics of various surfactant solutions. In general, in coatings, inks, and agricultural formulations, foam is undesirable because is complicates handling and can lead to coating and print defects, and to inefficient application of agricultural materials.

[2] = Dynamic surface tension of aqueous solutions, maximum bubble pressure method
Excerpt: In the following Examples dynamic surface tension data were obtained for aqueous solutions of various compounds using the maximum bubble pressure method at bubble rates from 0.1 bubbles/second (b/s) to 20 b/s. […] In practical terms, high bubble rates correspond to high printing speeds in lithographic printing, high spray or roller velocities in coating applications, and rapid application rates for agricultural products.
This value is a measure of the efficiency of a surfactant.
The critical aggregation concentrations (solubility limit or critical micelle concentration) were determined by intersection of the linear portion of a surface tension/ In concentration curve with the limiting surface tension as is described in many textbooks. […]
Process solutions containing 0.1 weight percent of a surfactant derived from 2,5,8,11-tetramethyl-6-dodecyne-5,8-diol or containing a fluorosurfactant, potassium perfluorooctane carboxylate provided by 3M of […]. were prepared in order to compare the equilibrium surface tension (EST) and dynamic surface tension (DST). The EST for both solutions was measured using the Wilhemy plate method on a […] manufactured by Kruss, Inc. of Charlotte, N.C. The DST of each process solution was measured via the maximum bubble pressure method.

[3] = Equilibrium surface tension, Wilhemy plate method; type: physicochemical; settings: 0.1 wt %
Method: Process solutions containing 0.1 weight percent of a surfactant derived from 2,5,8,11-tetramethyl-6-dodecyne-5,8-diol or containing a fluorosurfactant, potassium perfluorooctane carboxylate provided by 3M of St. Louis, Mo. were prepared in order to compare the equilibrium surface tension (EST) and dynamic surface tension (DST). The EST for both solutions was measured using the Wilhemy plate method on a Kruss BP3 bubble pressure tensiometer manufactured by Kruss, Inc. of Charlotte, N.C.

Row | Compound | RM Foam initial (Initial Foam Height) [1] | RM Foam t to 0 (Time to 0 Foam) [1] | Sol Limit / critical aggregation concentration (CAG) [2] | RM Foam, foam height after 5 minutes [1] | Sol Limit / critical aggregation concentration (CAG) ([2]; solubility limit or critical micelle concentration in water) | EST [3]
1 | 3.5 mole ethoxylate of 2,4,7,9-tetramethyl-5-decyne-4,7-diol capped with 2 moles of propylene oxide [Example 3] | 1.0 cm | 10 s | 0.21 wt % | – | – | –
2 | 10 mole EO/2 mole PO block derivative of 2,4,7,9-tetramethyl-5-decyne-4,7-diol [Example 5] | 2.1 cm | – | – | 1.3 cm | (0.78) wt % | –
3 | O=C([O-])C(F)(F)C(F)(F)C(F)(F)C(F)(F)C(F)(F)C(F)(F)C(F)(F)C(F)(F)F.[K+] [Fluorosurfactant, potassium perfluorooctane carboxylate, reference compound] | – | – | – | – | – | 21.2 dyne/cm
